Results published in US20070092879A1, “Fluoresence-based dna primase assays” (AstraZeneca AB, priority 2003, published 2007).

Molecular target: E. coli DNA primase (Escherichia coli, UniProt P0ABS5)
Test: Fluorescence-based E. coli DNA primase HTS assay in the presence of helicase (SYBR Green II)
Format: biochemical
Conditions: for inhibition of primase activity: 50 mM salt
Protocol: The reaction was carried out on a Costar 384-well black plate. The reaction volume was 30 μl. The final concentrations in the reaction were 50 mM Tris-HCl, pH 7.5, 10 mM Mg(OAc)2, 10 mM DTT, 25 mM potassium glutamate, 0.003% Brij-35, 200 nM DNA, 25 nM helicase, 75 nM E. coli DNA primase, 200 μM ATP and 200 μM GTP. To perform the HTS assay, 2 μl of compound/DMSO solution or aqueous DMSO solution was incubated with 23 μl of a reaction premix at room temperature for 15 min. The reaction premix was a 1.3× concentrated reaction solution without NTPs. After the incubation, 5 μl of a substrate solution with 1.2 mM ATP and 1.2 mM GTP were added to initiate the reaction. The reaction was incubated at room temperature for 40 min. Then 25 μl of a 30×SYBR Green II solution with 1.2 M NaCl was added and the fluorescence was measured (excitation at 485 nm, emission at 535 nm).
A dideoxy NTP was used as a positive inhibitory control for the primase reaction. […] Since ddATP competes with NTP (ATP in this case) in the primase reaction, the IC50 value was dependent on the substrate (ATP) concentration. Under the HTS conditions used, the IC50 of ddATP was 10 μM

E. coli DNA primase, sequence (P0ABS5 whole entry): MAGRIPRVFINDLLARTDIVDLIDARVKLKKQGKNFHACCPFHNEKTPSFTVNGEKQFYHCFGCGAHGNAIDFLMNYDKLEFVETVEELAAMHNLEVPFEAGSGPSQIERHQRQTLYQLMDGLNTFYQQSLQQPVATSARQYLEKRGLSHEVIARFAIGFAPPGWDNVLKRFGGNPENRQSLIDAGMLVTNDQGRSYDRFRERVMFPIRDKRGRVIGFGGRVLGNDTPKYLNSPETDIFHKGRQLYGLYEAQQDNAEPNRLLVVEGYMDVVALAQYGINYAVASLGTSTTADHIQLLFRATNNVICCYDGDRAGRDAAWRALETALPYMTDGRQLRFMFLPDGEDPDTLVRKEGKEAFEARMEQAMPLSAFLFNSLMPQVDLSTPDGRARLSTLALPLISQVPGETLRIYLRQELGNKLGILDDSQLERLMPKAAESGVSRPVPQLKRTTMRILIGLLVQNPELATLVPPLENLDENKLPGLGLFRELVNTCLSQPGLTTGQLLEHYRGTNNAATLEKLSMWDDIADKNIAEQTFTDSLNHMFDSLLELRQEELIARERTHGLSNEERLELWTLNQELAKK

| Compound | inhibition of primase activity | also measured |
| --- | --- | --- |
| 5′-CTCTCTCTCTCTCTCTCTCTCTCTCTCTCTCTCTGCAAAGC-3′ [DNA7] |  | Km (DNA template concentration dependence, FIG. 5, read-out: apparent Km for DNA): 0.105 µM |
| [Cl-].[K+] [KCl] | approximately 50% |  |
| [Cl-].[Na+] [NaCl] | approximately 50% |  |
| Nc1ncnc2c1ncn2[C@H]1CC[C@@H](COP(=O)(O)OP(=O)(O)OP(=O)(O)O)O1 [ddATP] |  | IC50 (HTS conditions, 200 μM ATP and 200 μM GTP, IC50 dependent on ATP concentration (competes with ATP), read-out: IC50 of inhibition of primase activity): 10 µM |
